Test results: paper PMC5470993, “Discovery and characterization of small molecule Rac1 inhibitors” (Oncotarget, 2017)
Like-named read-outs stand apart in the source and are kept apart here.

Assays:
[1] = target: T1, Rac1 (His-Rac1) (Homo sapiens, UniProt P63000); assay: GST-PAK1 pull-down of Rac1-GTP-γS, immunoblot; type: binding
T1 construct: wild type by context

[2] = target: T2, Rac1 (endogenous, CD18/HPAF cells) (Homo sapiens, UniProt P63000); assay: Rac1-GTP pull-down with GST-PAK1 from EGF-stimulated cells, immunoblot; type: cell-based; conditions: intact cells, 2 h compound, then EGF 100 ng/ml 5 min
T2 construct: endogenous Rac1 of CD18/HPAF human pancreatic cancer cells; Rac1-GTP captured with GST-PAK1 and blotted with Rac1 antibody 23A8

[3] = target: T1, Rac1 (His-Rac1); assay: fluorescence polarization competition with mant-GDP; type: binding
[4] = target: T1, Rac1 (His-Rac1); assay: GST-PAK1 pull-down of Rac1-GTP-γS, immunoblot; conditions: read-out: apparent binding affinity

**Q.** Which IC50 ([1]; read-out: IC50) does the source give for `CC(=O)c1cccc(NC(=O)c2ccc(-c3cccc([N+](=O)[O-])c3)o2)c1` [#1, compound #1] here?
**A.** 0.095 ± 0.021 µM

**Q.** What about the EC50 [2] of the same compound?
**A.** 8.3 ± 1.7 µM

**Q.** What about the Ki [3] of the same compound?
**A.** 6.8 ± 1.4 µM

**Q.** For `Cc1cc(C)cc(NC(=O)Cn2cc(C(=O)c3cccs3)c3ccccc32)c1` [#6, compound #6], which IC50 [1] is on record?
**A.** 0.088 ± 0.048 µM

**Q.** What about the EC50 [2] of the same compound?
**A.** 22.4 ± 3.2 µM

**Q.** How did the Kd [4] turn out when `Nc1nc2c(ncn2[C@@H]2O[C@H](COP(=O)(O)OP(=O)(O)OP(O)(O)=S)[C@@H](O)[C@H]2O)c(=O)[nH]1` [GTP-γS] was run?
**A.** 0.243 ± 0.093 µM
